Experiments:
Format in all cases: biochemical
EGFR = target: T1, EGFR (Homo sapiens, UniProt P00533); test: Kinase activity inhibition assay (HTRF TK Kit), selectivity
T1 construct: purchased Carna 08-115
Excerpt: (§1) In this assay, the HTRF TK Kit (Catalog No. 62TK0PEC) provided by Cisbio was used to detect the inhibitory activity of compounds on BTK kinase, BTK T474I kinase and BTK C481 S kinase and the selectivity of compounds relative to EGFR, ITK and TEC kinases.
(§2) Reagents and consumables: BTK kinase (Invitrogen, Catalog No. PV3587), BTK C481S (Carna, Product No. 08-547), BTK T474I(SignalChem Product No. B10-12HH), ITK (Cama, Product No. 08-181), EGFR (Cama, Product No. 08-115), TEC (Carna, Product No. 08-182), HTRF-TK kit (Cisbio, Product No. 62TK0PEC), MgCl2 (Sigma, Product No. M1028), MnCl2 (Sigma, Product No. M1787), DTT (Sigma, Product No. D0632), ATP (Sigma, Product No. A7699-1g), DMSO (Sigma, Product No. D2650), 384-well plate (PE, Product No. 6008280).
(§3) The entire operation steps were carried out on ice, and the total reaction volume was 10µL. A compound (4µL), substrate and ATP (4µL), and kinase (2µL) were added in sequence to a 384-well plate, and the plate was shaken for 30 seconds. The mixture was reacted at room temperature for an appropriate time, and then the detection reagent was added. The resulting mixture was reacted at room temperature for 1 hour, and then the plate was assayed with a microplate reader. The specific steps were as follows: • a) a 1 × kinase buffer solution required for the kinase assay was calculated according to the amount of the test compound, and prepared as needed; • b) 2.5 × working concentration of a compound was prepared, 100-fold gradient concentration solutions of a compound were diluted by 40 × to the desired concentration, respectively, mixed well, and added to each well at 4 µL per well; • c) 5 × working concentration of the substrate and ATP were prepared, mixed in a ratio of 1:1 before being added to the 384-well plate, and added to each well at 4 µL per well; • d) 5 × working concentration of a kinase was prepared, 2 µL of which was added to each well; • e) the plate was shaken on a microplate shaker for 30 seconds, sealed with a sealing membrane, and the mixture was reacted at room temperature for an appropriate time; • f) 4 × working concentration of streptavidin XL-665 and TK antibody-cryptate compound were prepared, mixed in a ratio of 1:1 before being added to the 384-well plate, and added to each well at 10 µL per well; • g) the mixture was reacted at room temperature for 1 hour, and then the plate was read; • h) the wells with only substrate, ATP and 1% DMSO added but no kinase were blank control wells, and the wells with only substrate, ATP, 1% DMSO and kinase were positive control wells.
(§4) Readings: The values of 620 nm (cryptate) and 665 nm (XL665) were read with a BioTek Synerg Neo2 microplate reader, the ratio of 665/620 for each well was calculated, and the data were exported.
(§5) Data analysis: IC50 was calculated using GraphPad Prism 7.0 software.
(§6) The IC50 (half-maximal inhibitory concentration) of the compound was obtained using the following nonlinear fitting formula: Y = Bottom + (Top−Bottom)/(1+10^(∧)((LogIC50−X)*HillSlope)) [formula] • X: Log value of the compound concentration • Y: Inhibition rate (% inhibition) • Top: Maximum response • Bottom: Baseline response • HillSlope: Slope of the curve
(§7) The formula for calculating kinase inhibition rate (inhibition rate %) was: [formula]

TEC = target: T2, TEC (Homo sapiens, UniProt P42680); test: as above
T2 construct: purchased Carna 08-182
T2 sequence (P42680 1-631): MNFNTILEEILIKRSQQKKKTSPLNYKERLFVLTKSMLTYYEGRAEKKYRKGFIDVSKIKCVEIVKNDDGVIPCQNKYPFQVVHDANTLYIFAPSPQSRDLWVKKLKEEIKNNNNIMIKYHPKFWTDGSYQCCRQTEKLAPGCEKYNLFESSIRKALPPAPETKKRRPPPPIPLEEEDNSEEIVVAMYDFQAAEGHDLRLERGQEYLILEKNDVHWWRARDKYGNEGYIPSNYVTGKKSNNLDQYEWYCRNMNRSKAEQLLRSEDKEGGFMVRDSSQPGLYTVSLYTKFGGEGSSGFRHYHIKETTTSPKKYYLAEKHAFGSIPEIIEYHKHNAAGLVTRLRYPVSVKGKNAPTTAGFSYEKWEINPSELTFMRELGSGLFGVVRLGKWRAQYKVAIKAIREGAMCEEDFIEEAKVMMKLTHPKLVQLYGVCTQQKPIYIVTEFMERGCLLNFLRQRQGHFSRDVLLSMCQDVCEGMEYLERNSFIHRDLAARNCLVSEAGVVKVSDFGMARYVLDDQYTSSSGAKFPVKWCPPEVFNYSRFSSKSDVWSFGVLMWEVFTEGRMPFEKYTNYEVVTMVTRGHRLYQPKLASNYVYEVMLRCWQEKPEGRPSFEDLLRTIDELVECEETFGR
Excerpt: as §1, §2, §3, §4, §5, §6, §7

ITK = target: T3, ITK (Homo sapiens, UniProt Q08881); test: as above
T3 construct: purchased Carna 08-181
T3 sequence (Q08881 1-620): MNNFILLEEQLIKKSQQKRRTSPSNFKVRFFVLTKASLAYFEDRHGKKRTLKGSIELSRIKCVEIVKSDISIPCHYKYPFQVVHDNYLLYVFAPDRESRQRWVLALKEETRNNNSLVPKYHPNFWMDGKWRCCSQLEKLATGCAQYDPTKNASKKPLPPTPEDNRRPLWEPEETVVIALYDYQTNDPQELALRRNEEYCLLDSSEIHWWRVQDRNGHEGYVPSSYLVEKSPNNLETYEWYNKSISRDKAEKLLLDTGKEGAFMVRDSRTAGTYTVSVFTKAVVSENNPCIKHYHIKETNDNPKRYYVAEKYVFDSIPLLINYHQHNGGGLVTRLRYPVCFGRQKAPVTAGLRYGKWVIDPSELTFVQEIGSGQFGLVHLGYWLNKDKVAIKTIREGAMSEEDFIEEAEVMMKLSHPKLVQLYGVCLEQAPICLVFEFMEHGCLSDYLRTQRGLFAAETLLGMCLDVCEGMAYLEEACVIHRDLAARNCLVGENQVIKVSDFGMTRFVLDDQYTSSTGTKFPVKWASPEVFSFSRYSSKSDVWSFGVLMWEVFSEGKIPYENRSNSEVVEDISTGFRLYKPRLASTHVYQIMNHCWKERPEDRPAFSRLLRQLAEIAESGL
Excerpt: as §1, §2, §3, §4, §5, §6, §7

BTK kinase = target: T4, BTK kinase (Homo sapiens, UniProt Q06187); test: Kinase activity inhibition assay (HTRF TK Kit)
T4 construct: purchased Invitrogen PV3587
T4 sequence (Q06187 whole entry): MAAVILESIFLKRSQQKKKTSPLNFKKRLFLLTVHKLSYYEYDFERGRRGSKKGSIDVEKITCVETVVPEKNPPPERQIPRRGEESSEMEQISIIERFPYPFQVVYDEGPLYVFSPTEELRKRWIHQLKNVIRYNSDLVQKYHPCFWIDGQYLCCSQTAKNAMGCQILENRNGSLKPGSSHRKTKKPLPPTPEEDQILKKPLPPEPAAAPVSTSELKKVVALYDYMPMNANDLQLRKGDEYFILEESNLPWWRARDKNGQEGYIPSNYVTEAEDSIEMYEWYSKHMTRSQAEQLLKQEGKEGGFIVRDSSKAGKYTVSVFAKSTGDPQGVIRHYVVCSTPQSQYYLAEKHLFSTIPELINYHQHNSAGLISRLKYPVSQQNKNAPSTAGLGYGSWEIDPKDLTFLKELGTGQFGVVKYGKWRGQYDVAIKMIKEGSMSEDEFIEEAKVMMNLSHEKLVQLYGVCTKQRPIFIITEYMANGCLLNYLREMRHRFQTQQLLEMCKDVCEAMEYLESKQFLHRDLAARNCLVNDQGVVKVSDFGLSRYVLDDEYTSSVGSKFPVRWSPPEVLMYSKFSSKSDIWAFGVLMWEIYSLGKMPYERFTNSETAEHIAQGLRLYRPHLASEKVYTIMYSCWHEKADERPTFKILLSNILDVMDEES
Excerpt: as §1, §2, §3, §4, §5, §6, §7

BTK C481S = target: T5, BTK C481S (Homo sapiens, UniProt Q06187, C481S); test: Kinase activity inhibition assay (HTRF TK Kit)
T5 construct: purchased Carna 08-547
T5 sequence (Q06187 whole entry C481S): as the sequence (Q06187 whole entry) above, with C481S counted along it
Excerpt: as §1, §2, §3, §4, §5, §6, §7

BTK T474I = target: T6, BTK T474I (Homo sapiens, UniProt Q06187, T474I); test: Kinase activity inhibition assay (HTRF TK Kit)
T6 construct: purchased SignalChem B10-12HH
T6 sequence (Q06187 whole entry T474I): as the sequence (Q06187 whole entry) above, with T474I counted along it
Excerpt: as §1, §2, §3, §4, §5, §6, §7

T1 sequence (P00533 669-1210 limits assumed): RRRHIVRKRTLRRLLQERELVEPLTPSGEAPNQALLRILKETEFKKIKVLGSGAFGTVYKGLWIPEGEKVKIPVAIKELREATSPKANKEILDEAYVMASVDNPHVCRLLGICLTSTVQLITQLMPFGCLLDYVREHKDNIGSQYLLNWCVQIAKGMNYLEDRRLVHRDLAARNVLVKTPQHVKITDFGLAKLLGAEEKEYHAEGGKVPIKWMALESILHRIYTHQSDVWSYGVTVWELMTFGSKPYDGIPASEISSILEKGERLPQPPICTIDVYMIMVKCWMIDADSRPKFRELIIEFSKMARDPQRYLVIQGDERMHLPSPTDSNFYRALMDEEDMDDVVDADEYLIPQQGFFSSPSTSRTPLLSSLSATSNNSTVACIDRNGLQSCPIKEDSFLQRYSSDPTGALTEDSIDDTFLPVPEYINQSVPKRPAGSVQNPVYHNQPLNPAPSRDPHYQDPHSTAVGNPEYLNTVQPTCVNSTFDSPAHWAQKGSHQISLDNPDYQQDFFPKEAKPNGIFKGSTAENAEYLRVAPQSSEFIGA

SMILES | IC50 (EGFR) [nM] | IC50 (TEC) [nM] | IC50 (ITK) [nM] | IC50 (BTK kinase) [nM] | IC50 (BTK C481S) [nM] | IC50 (BTK T474I) [nM]
CCN1CCn2nc(-c3cnc(-c4ccc(CNC(=O)c5cc(F)ccc5OC)cc4)c4c(N)n[nH]c34)cc2C1 [Example 72, N-(4-(3-amino-7-(5-ethyl-4,5,6,7-tetrahydropyrazolo[1,5-a]pyrazin-2-yl)-1H-pyrazolo[4,3-c]pyridin-4-yl)benzyl)-5-fluoro-2-methoxybenzamide] | 5 to 50 | 5 to 50 | 50 to 500 | ≤ 1 | ≤ 1 | 5 to 50
COc1ccc(F)cc1C(=O)NCc1ccc(-c2ncc(-c3cc4ccccn4n3)c3[nH]nc(N)c23)cc1 [Example 69, N-(4-(3-amino-7-(pyrazolo[1,5-a]pyridin-2-yl)-1H-pyrazolo[4,3-c]pyridin-4-yl)benzyl)-5-fluoro-2-methoxybenzamide] | 5 to 50 | 1 to 5 | 50 to 500 | ≤ 1 | ≤ 1 | 5 to 50
COc1ccc(F)cc1C(=O)NCc1ccc(-c2ncc(-c3cnn(C)c3)c3[nH]nc(N)c23)cc1 [Example 22, N-(4-(3-amino-7-(1-methyl-1H-pyrazol-4-yl)-1H-pyrazolo[4,3-c]pyridin-4-yl)benzyl)-5-fluoro-2-oxybenzamide] | > 500 | > 500 | > 500 | 5 to 50 | 5 to 50 | 50 to 500
COc1ccc(F)cc1C(=O)NCc1ccc(-c2ncc(-c3cc4cnccn4n3)c3[nH]nc(N)c23)cc1 [Example 78, N-(4-(3-amino-7-(pyrazolo[1,5-a]pyrazin-2-yl)-1H-pyrazolo[4,3-c]pyridin-4-yl)benzyl)-5-fluoro-2-methoxybenzamide] | 5 to 50 | 5 to 50 | 50 to 500 | ≤ 1 | ≤ 1 | 5 to 50
COc1ccc(F)cc1C(=O)NCc1ccc(-c2ncc(-c3cn(C)cn3)c3[nH]nc(N)c23)cc1 [Example 30, N-(4-(3-amino-7-(1-methyl-1H-imidazol-4-yl)-1H-pyrazolo[4,3-c]pyridin-4-yl)benzyl)-5-fluoro-2-methoxybenzamide] | 50 to 500 | 50 to 500 | > 500 | 1 to 5 | 1 to 5 | 50 to 500
COc1ccc(F)cc1C(=O)NCc1ccc(-c2ncc(-c3ccc(C4COC4)cn3)c3[nH]nc(N)c23)cc1 [Example 43, N-(4-(3-amino-7-(5-(oxetan-3-yl)pyridin-2-yl)-1H-pyrazolo[4,3-c]pyridin-4-yl)benzyl)-5-fluoro-2-methoxybenzamide] | 5 to 50 | 1 to 5 | 50 to 500 | ≤ 1 | ≤ 1 | 5 to 50
CCN1CCc2nc(-c3cnc(-c4ccc(CNC(=O)c5cc(F)ccc5OC)cc4)c4c(N)n[nH]c34)sc2C1 [Example 101, N-(4-(3-amino-7-(5-ethyl-4,5,6,7-tetrahydrothiazolo[5,4-c]pyridin-2-yl)-1H-pyrazolo[4,3-c]pyridin-4-yl)benzyl)-5-fluoro-2-methoxybenzamide] | 50 to 500 | 5 to 50 | 50 to 500 | 1 to 5 | 1 to 5 | 5 to 50
COc1ccc(F)cc1C(=O)NCc1ccc(-c2ncc(-c3ccc4cn[nH]c4n3)c3[nH]nc(N)c23)cc1 [Example 47, N-(4-(3-amino-7-(1H-pyrazolo[3,4-b]pyridin-6-yl)-1H-pyrazolo[4,3-c]pyridin-4-yl)benzyl)-5-fluoro-2-methoxybenzamide] | 50 to 500 | 5 to 50 | > 500 | 1 to 5 | 1 to 5 | 50 to 500
COc1ccc(F)cc1C(=O)NCc1ccc(-c2ncc(-c3ccc(CN4CCN(C)CC4)cn3)c3[nH]nc(N)c23)cc1 [Example 68, N-(4-(3-amino-7-(5-((4-methylpiperazin-1-yl)methyl)pyridin-2-yl)-1H-pyrazolo[4,3-c]pyridin-4-yl)benzyl)-5-fluoro-2-methoxybenzamide] | 5 to 50 | 5 to 50 | 50 to 500 | 1 to 5 | 1 to 5 | 5 to 50
COc1ccc(F)cc1C(=O)NCc1ccc(-c2ncc(-c3cn4ccnc4cn3)c3[nH]nc(N)c23)cc1 [Example 50, N-(4-(3-amino-7-(imidazo[1,2-a]pyrazin-6-yl)-1H-pyrazolo[4,3-c]pyridin-4-yl)benzyl)-5-fluoro-2-methoxybenzamide] | 50 to 500 | 5 to 50 | > 500 | 1 to 5 | 1 to 5 | 50 to 500
COc1ccc(F)cc1C(=O)NCc1ccc(-c2ncc(-c3nc4cnccn4n3)c3[nH]nc(N)c23)cc1 [Example 57, N-(4-(7-([1,2,4]triazolo[1,5-a]pyrazin-2-yl)-3-amino-1H-pyrazolo[4,3-c]pyridin-4-yl)benzyl)-5-fluoro-2-methoxybenzamide] | 50 to 500 | 50 to 500 | > 500 | 1 to 5 | ≤ 1 | 50 to 500
C=CC(=O)N1CCCC(c2cc3[nH]nc(N)c3c(-c3ccc(CNC(=O)c4cc(F)ccc4OC)cc3)n2)C1 (stereo not drawn) [Example 96, N-(4-(6-(1-acryloylpiperidin-3-yl)-3-amino-1H-pyrazolo[4,3-c]pyridin-4-yl)benzyl)-5-fluoro-2-methoxybenzamide] | 50 to 500 | 5 to 50 | > 500 | 1 to 5 | 1 to 5 | 5 to 50
